# Experimental data from patent US7858635B2 (priority 2005, dated 2010).
# Read-outs that look alike come from different tables or passages of the source.
# How the values were obtained:
# [1] = target: T1, M1 muscarinic receptor (Homo sapiens, UniProt P11229); assay: Functional mobilization of intracellular calcium (FLIPR, Fluo-3), M1-CHO cells; assay type: cell-based; conditions: for Emax: read-out: M1 Efficacy
# T1 construct: expressed in transfected cells; host or cells: CHO cells (M1-CHO, under zeocin and G418 selection)
# T1 sequence (P11229 1-460): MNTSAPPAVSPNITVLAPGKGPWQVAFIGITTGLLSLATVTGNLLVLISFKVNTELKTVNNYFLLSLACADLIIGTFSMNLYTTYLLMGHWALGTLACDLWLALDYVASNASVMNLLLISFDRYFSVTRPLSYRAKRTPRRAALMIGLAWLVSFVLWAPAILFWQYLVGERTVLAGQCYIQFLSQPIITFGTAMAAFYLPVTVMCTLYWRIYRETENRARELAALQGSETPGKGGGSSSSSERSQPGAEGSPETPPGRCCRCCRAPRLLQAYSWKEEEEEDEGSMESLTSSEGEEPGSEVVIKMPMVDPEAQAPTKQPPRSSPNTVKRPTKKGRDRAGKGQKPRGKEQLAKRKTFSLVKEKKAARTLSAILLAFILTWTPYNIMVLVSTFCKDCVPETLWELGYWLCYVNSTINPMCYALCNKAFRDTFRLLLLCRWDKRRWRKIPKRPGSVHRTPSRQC
# Method in brief: (§1)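 Fluo-3 read-out, ex 488/em 540 nm, 60 sec on FLIPR 3. For agonist mode, compound added directly; for inhibition, 15 min compound pre-incubation before carbachol at EC80 (added as a 3× solution), or co-application. Buffer pH 7.4 with 1 mM probenecid; DMSO 0.5%.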
# [2] = target: T2, M4 muscarinic receptor (Homo sapiens, UniProt P08173); assay: Functional mobilization of intracellular calcium (FLIPR, Fluo-3), M4-CHO cells; assay type: cell-based; conditions: for Emax: read-out: M4 Efficacy
# T2 construct: expressed in transfected cells; host or cells: CHO cells (M4-CHO, under puromycin, zeocin and blasticidin selection)
# T2 sequence (P08173 1-479): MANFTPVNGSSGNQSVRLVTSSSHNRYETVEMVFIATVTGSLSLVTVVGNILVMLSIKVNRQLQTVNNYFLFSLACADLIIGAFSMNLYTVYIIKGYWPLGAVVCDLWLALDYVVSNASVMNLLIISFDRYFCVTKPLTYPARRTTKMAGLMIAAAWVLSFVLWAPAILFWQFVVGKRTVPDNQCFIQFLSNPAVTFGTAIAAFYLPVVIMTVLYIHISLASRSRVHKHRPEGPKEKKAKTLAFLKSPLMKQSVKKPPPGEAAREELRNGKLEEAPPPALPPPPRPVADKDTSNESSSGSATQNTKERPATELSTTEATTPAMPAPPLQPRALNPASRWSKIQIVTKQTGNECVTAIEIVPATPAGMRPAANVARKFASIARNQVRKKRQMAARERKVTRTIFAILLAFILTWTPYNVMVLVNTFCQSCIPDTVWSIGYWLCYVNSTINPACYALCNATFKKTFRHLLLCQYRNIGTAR
# Method in brief: as §1
# [3] = compound nos. 1-454, 100% efficacy is the maximum response obtained with the Carbachol control
# [4] = compound nos. 1-454, M1-CHO cells, calcium mobilization
# [5] = compound nos. 1-454, M4-CHO cells, calcium mobilization
# [6] = compound nos. 455-509, 100% efficacy is the maximum response obtained with the Carbachol control
Structure (SMILES),"Emax [1, 3] [%]","M1 Activity [1, 4]","Emax [2, 3] [%]","M4 Activity [2, 5]",also measured
CCOC(=O)N1C2CCC1CC(N1CCC3(CC1)CNc1ccc(F)cc13)C2 (stereo not shown) [compound 310],< 65,++ (activity was measured to be between 0.7 μM and 3.0 μM),< 55,+ (activity was measured to be greater than or equal to 4.0 μM),
CN(C)C(=O)N1CC2(CCN(C3CCN(c4nccs4)CC3)CC2)c2ccccc21 [compound 504],,,,,"Emax [1, 6]: 25 to 100%; M1 Activity ([1]; compounds 455-509): + (activity was measured to be greater than or equal to 5.0 μM); Emax [2, 6]: 25 to 100%; M4 Activity ([2]; compounds 455-509): ++ (activity was measured to be between 2.0 μM and 5.0 μM)"
O=C(OC1CCC1)N1C2CCC1CC(N1CCC3(CC1)COc1ccc(F)cc13)C2 (stereo not shown) [compound 123],< 65,++ (activity was measured to be between 0.7 μM and 3.0 μM),< 55,+ (activity was measured to be greater than or equal to 4.0 μM),
Clc1ccc2c(c1)C1(CCO2)CCN(CC2CCOCC2)CC1 [compound 288],< 65,+ (activity was measured to be greater than or equal to 3.0 μM),< 55,+ (activity was measured to be greater than or equal to 4.0 μM),
CCOC(=O)N1CCC(N2CCC3(CC2)C(=O)N(C)c2ccccc23)CC1 [compound 31],> 85,+++ (activity was measured to be less than or equal to 0.7 μM),55 to 70,+++ (activity was measured to be less than or equal to 0.1 μM),
COC(=O)N1CC2(CCN(C3CC4CCC(C3)N4C(=O)O[C@@H]3CCOC3)CC2)c2cc(F)ccc21 (stereo partly shown) [compound 192],65 to 85,+++ (activity was measured to be less than or equal to 0.7 μM),55 to 70,+ (activity was measured to be greater than or equal to 4.0 μM),
CC(=O)N1CC2(CCN(C3CC[C@@H]4CC[C@@H]3C4)CC2)c2cc(F)ccc21 (stereo partly shown) [compound 251],65 to 85,++ (activity was measured to be between 0.7 μM and 3.0 μM),55 to 70,+ (activity was measured to be greater than or equal to 4.0 μM),
CCOC(=O)N1CCC(CN2CCC3(CC2)CN(C(C)=O)c2c(F)cccc23)CC1 [compound 307],65 to 85,++ (activity was measured to be between 0.7 μM and 3.0 μM),< 55,+ (activity was measured to be greater than or equal to 4.0 μM),
Cc1cc(C(=O)N2CC3(CCN(C4CC5CCC(C4)N5C(=O)O[C@H]4CCOC4)CC3)c3cc(F)ccc32)nn1C (stereo partly shown) [compound 411],,,,,"M1 Activity ([1]; compound nos. 1-454): +++ (activity was measured to be less than or equal to 0.7 μM); M1 Efficacy [1, 3]: + (efficacy was calculated to be 65% or less); M4 Activity ([2]; compound nos. 1-454): ++ (activity was measured to be between 0.1 μM and 4.0 μM); M4 Efficacy [2, 3]: + (efficacy was calculated to be 55% or less)"
O=C(C1CC1)N1CC2(CCN(C3CC4CCC(C3)N4C(=O)OC3CCC3)CC2)c2cc(F)ccc21 (stereo not shown) [compound 379],65 to 85,,55 to 70,,M1 Activity ([1]; compound nos. 1-454): +++ (activity was measured to be less than or equal to 0.7 μM); M4 Activity ([2]; compound nos. 1-454): ++ (activity was measured to be between 0.1 μM and 4.0 μM)
CN(C)C(=O)N1CC2(CCN(C3CCN(C(=O)O[C@@H]4CCOC4)CC3)CC2)c2cc(F)ccc21 [compound 209],> 85,++ (activity was measured to be between 0.7 μM and 3.0 μM),< 55,+ (activity was measured to be greater than or equal to 4.0 μM),
CCOC(=O)N1CCC(N2CCC3(CC2)CN(C(C)=O)c2ccc(F)cc23)C1 (stereo not shown) [compound 113],65 to 85,+++ (activity was measured to be less than or equal to 0.7 μM),< 55,+ (activity was measured to be greater than or equal to 4.0 μM),
O=C(OC1CCCC1)N1C2CCC1CC(N1CCC3(CC1)COc1ccc(F)cc13)C2 (stereo not shown) [compound 133],> 85,+++ (activity was measured to be less than or equal to 0.7 μM),55 to 70,++ (activity was measured to be between 0.1 μM and 4.0 μM),
CCOC(=O)N1CCC(N2CCC3(CC2)CN(C(C)=O)c2ccc(-c4ccc(NC(C)=O)cc4)cc23)CC1 [compound 10],65 to 85,++ (activity was measured to be between 0.7 μM and 3.0 μM),55 to 70,++ (activity was measured to be between 0.1 μM and 4.0 μM),
CCOC(=O)N1CCC(N2CCC3(CC2)CN(C(=O)c2ccc4c(c2)OCO4)c2ccc(F)cc23)CC1 [compound 401],65 to 85,,< 55,,M1 Activity ([1]; compound nos. 1-454): +++ (activity was measured to be less than or equal to 0.7 μM); M4 Activity ([2]; compound nos. 1-454): + (activity was measured to be greater than or equal to 4.0 μM)
CN([C@H]1CC2(CCN(C[C@H]3C[C@H]4CC[C@H]3C4)CC2)c2ccccc21)S(C)(=O)=O [compound 357],< 65,++ (activity was measured to be between 0.7 μM and 3.0 μM),< 55,+ (activity was measured to be greater than or equal to 4.0 μM),
COC(=O)N1CC2(CCN(C3CC4CCC(C3)N4C(=O)OC)CC2)c2cc(F)ccc21 (stereo not shown) [compound 235],65 to 85,++ (activity was measured to be between 0.7 μM and 3.0 μM),55 to 70,+ (activity was measured to be greater than or equal to 4.0 μM),
CC(=O)N1CCC2(CCN(C3CCN(c4cnc5ccccc5n4)CC3)CC2)c2ccccc21 [compound 456],,,,,"Emax [1, 6]: > 100%; M1 Activity ([1]; compounds 455-509): ++ (activity was measured to be between 2.0 μM and 5.0 μM); Emax [2, 6]: 25 to 100%; M4 Activity ([2]; compounds 455-509): ++ (activity was measured to be between 2.0 μM and 5.0 μM)"
CCOC(=O)N1CCC(N2CCC3(CC2)CN(C(=O)c2ccccc2F)c2ccc(F)cc23)CC1 [compound 267],< 65,+ (activity was measured to be greater than or equal to 3.0 μM),< 55,+ (activity was measured to be greater than or equal to 4.0 μM),
CCOC(=O)N1CCC(N2CCC3(CC2)CN(C(C)=O)c2ccc(-c4ccsc4)cc23)CC1 [compound 165],65 to 85,+ (activity was measured to be greater than or equal to 3.0 μM),> 70,+ (activity was measured to be greater than or equal to 4.0 μM),
CC(=O)N1CC2(CCN(C3CC4CCC(C3)N4C(=O)O[C@H]3CCOC3)CC2)c2cc(F)ccc21 (stereo partly shown) [compound 47],65 to 85,+++ (activity was measured to be less than or equal to 0.7 μM),55 to 70,++ (activity was measured to be between 0.1 μM and 4.0 μM),
Cc1ccc2c(c1)C1(CCN(C3CC4CCC3C4)CC1)CN2C(=O)OC(C)(C)C (stereo not shown) [compound 116],65 to 85,+++ (activity was measured to be less than or equal to 0.7 μM),< 55,++ (activity was measured to be between 0.1 μM and 4.0 μM),
CCOC(=O)N1CCC(N2CCC3(CC2)CN(C(C)=O)c2ccc(-c4cccc(C#N)c4)cc23)CC1 [compound 373],65 to 85,+++ (activity was measured to be less than or equal to 0.7 μM),> 70,++ (activity was measured to be between 0.1 μM and 4.0 μM),
c1ccc2c(c1)NCC21CCN(C2CCC3CCC2C3)CC1 (stereo not shown) [compound 244],65 to 85,++ (activity was measured to be between 0.7 μM and 3.0 μM),55 to 70,+ (activity was measured to be greater than or equal to 4.0 μM),
CCCCC(=O)N1CC2(CCN(C3CCN(C(=O)OCC)CC3)CC2)c2cc(F)ccc21 [compound 270],65 to 85,+++ (activity was measured to be less than or equal to 0.7 μM),> 70,+++ (activity was measured to be less than or equal to 0.1 μM),
